Measured values taken from ChEMBL document CHEMBL1201862, “PubChem BioAssay data set” (2004).
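Dose response: 5 concentrations. Exposure: 48 h. Format: 96-well plates. Endpoint: linear interpolation; highest concentration if not reached. At the GI50, growth is halved.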 Activity calls are given as the source filed them. No stated cut-off is given here; in the data, active = GI50 up to about 1.1 µM and inactive = higher.

How the values were obtained:
Assay in all cases: growth of human tumour cells (NCI), 48 h
[1] = tested on: SF-295
[2] = tested on: K562
[3] = tested on: SK-MEL-5
[4] = tested on: NCI-H460
[5] = tested on: HCT-116
[6] = tested on: IGROV-1
[7] = tested on: KM12
[8] = tested on: NCI/ADR-RES
[9] = tested on: ACHN
[10] = tested on: NCI-H226
[11] = tested on: T47D
[12] = tested on: A549
[13] = tested on: HOP-92
[14] = tested on: COLO 205
[15] = tested on: UACC-257
[16] = tested on: SW-620
[17] = tested on: NCI-H23
[18] = tested on: U-251
[19] = tested on: NCI-H522

Measured: GI50

O=C(OC1C2OC(=O)c3cc(O)c(O)c(O)c3Oc3cc4c(c(O)c3O)-c3c(cc(O)c(O)c3O)C(=O)OCC3OC(O)C(OC(=O)c5cc(O)c(O)c(O)c5Oc5cc6c(c(O)c5O)-c5c(cc(O)c(O)c5O)C(=O)OC1C(COC6=O)OC2O)C(OC(=O)c1cc(O)c(O)c(O)c1)C3OC4=O)c1cc(O)c(O)c(O)c1 (stereo not drawn)
inactive: [1] 14.7 µM | [2] 7.8 µM | [3] 53.8 µM | [4] 3.52 µM | [5] 16.4 µM | [6] 40.2 µM | [7] 3.36 µM | [8] 58.2 µM | [9] 38.9 µM | [10] 22.4 µM | [11] > 100 µM | [12] 10.8 µM | [13] 19 µM | [14] 5.87 µM | [15] 81.5 µM | [16] 13.2 µM | [17] 24.6 µM

O/N=C\c1c(O)ccc2ccccc12
inactive: [1] 41.7 µM | [2] 46.8 µM | [3] 46.7 µM | [4] 44.7 µM | [5] 38.9 µM | [18] 51.8 µM | [7] 42.3 µM | [8] 68.2 µM | [9] 24.8 µM | [10] 33.3 µM | [11] 27.8 µM | [12] 46.6 µM | [13] 73.8 µM | [14] 55.3 µM | [15] 71.9 µM | [16] 73.6 µM | [17] 83.6 µM

COC(=O)C1Cc2cc3c(cc2C1=O)CCCC3 (stereo not drawn)
inactive: [1] 62.1 µM | [2] 33.6 µM | [19] 80.5 µM | [3] 48 µM | [4] > 100 µM | [5] 42.3 µM | [18] 43.5 µM | [6] 67.5 µM | [7] 34.3 µM | [8] 48.9 µM | [9] 94.6 µM | [10] 23.8 µM | [11] 37.6 µM | [12] > 100 µM | [14] > 100 µM | [15] > 100 µM | [16] 47 µM | [17] 43.2 µM

CCOC(=O)CCC(NC(=O)c1ccc(Oc2nc3ccccc3nc2C(=O)OCC)cc1)C(=O)OCC (stereo not drawn)
inactive: [1] > 100 µM | [19] > 100 µM | [3] > 100 µM | [4] > 100 µM | [5] 72.3 µM | [18] 71.3 µM | [6] > 100 µM | [7] > 100 µM | [8] 55.1 µM | [9] > 100 µM | [11] > 100 µM | [12] > 100 µM | [13] > 100 µM | [14] > 100 µM | [15] > 100 µM | [16] > 100 µM | [17] > 100 µM

Cn1nc2ccc([N+](=O)[O-])c(Cn3nnc4ccccc43)c2n1
inactive: [1] > 100 µM | [2] > 100 µM | [3] 79.4 µM | [4] > 100 µM | [5] > 100 µM | [18] > 100 µM | [6] > 100 µM | [7] 76.7 µM | [8] 71 µM | [9] > 100 µM | [10] > 100 µM | [11] > 100 µM | [12] > 100 µM | [13] > 100 µM | [14] > 100 µM | [15] > 100 µM | [16] > 100 µM | [17] > 100 µM

CC(C)C1CC[C@H](C)C[C@@H]1OC(=O)C(C(=O)O[C@H]1C[C@@H](C)CCC1C(C)C)C(O)[C@@H]1OC(C)(C)O[C@H]1C1COC(C)(C)O1 (stereo partly drawn)
inactive: [1] 16.1 µM | [2] 11.1 µM | [19] 1.58 µM | [3] 15.8 µM | [4] 15 µM | [5] 11.7 µM | [18] 14.2 µM | [6] 16.8 µM | [7] 16.6 µM | [8] 20.4 µM | [9] 16.6 µM | [10] 23.8 µM | [11] 13.1 µM | [12] 22.3 µM | [14] 13.6 µM | [15] 24.6 µM | [16] 14.2 µM | [17] 13.4 µM

CC1CNc2ccccc2N=C1NN (stereo not drawn)
inactive: [1] > 100 µM | [2] > 100 µM | [19] > 100 µM | [3] > 100 µM | [4] > 100 µM | [5] > 100 µM | [18] > 100 µM | [6] > 100 µM | [7] > 100 µM | [8] > 100 µM | [9] > 100 µM | [10] > 100 µM | [11] > 100 µM | [12] > 100 µM | [14] > 100 µM | [15] > 100 µM | [16] > 100 µM | [17] > 100 µM

O=C1/C(=C/c2ccc(O)c([N+](=O)[O-])c2)CCC/C1=C\c1ccc(O)c([N+](=O)[O-])c1
inactive: [1] 18.4 µM | [2] 15.7 µM | [19] 8.93 µM | [3] 9.27 µM | [4] 17.8 µM | [5] 8.45 µM | [18] 9.33 µM | [6] 8.93 µM | [7] 9.4 µM | [8] 19.2 µM | [9] 7.96 µM | [10] 11.6 µM | [11] 14.9 µM | [12] 11.7 µM | [14] 13.5 µM | [15] 10.5 µM | [16] 10.2 µM | [17] 12.3 µM

CN(C)/C=N/[C@@H](C(=O)O)c1ccccc1
inactive: [1] > 100 µM | [2] > 100 µM | [3] > 100 µM | [4] > 100 µM | [5] > 100 µM | [18] > 100 µM | [6] > 100 µM | [8] > 100 µM | [9] > 100 µM | [10] > 100 µM | [11] > 100 µM | [12] > 100 µM | [13] > 100 µM | [14] > 100 µM | [15] > 100 µM | [16] > 100 µM | [17] > 100 µM

C[C@@]1(O)C2C3CC4C5C3C1[C@](O)(C42)[C@H]5Br (stereo partly drawn)
inactive: [1] > 100 µM | [2] > 100 µM | [19] > 100 µM | [3] > 100 µM | [4] > 100 µM | [5] > 100 µM | [18] > 100 µM | [6] > 100 µM | [7] > 100 µM | [8] > 100 µM | [9] > 100 µM | [11] > 100 µM | [12] > 100 µM | [13] > 100 µM | [14] > 100 µM | [15] > 100 µM | [16] > 100 µM | [17] > 100 µM

COc1ccc(C(OCC2OC(n3cc(C)c(=O)[nH]c3=O)CC2n2cc(Cn3cc(Cl)c(=O)[nH]c3=O)nn2)(c2ccccc2)c2ccccc2)cc1 (stereo not drawn)
inactive: [1] > 100 µM | [19] > 100 µM | [3] > 100 µM | [5] 33.9 µM | [18] 24.8 µM | [6] 39.5 µM | [7] > 100 µM | [8] > 100 µM | [9] > 100 µM | [10] > 100 µM | [11] > 100 µM | [12] > 100 µM | [13] 28.8 µM | [14] > 100 µM | [15] > 100 µM | [16] > 100 µM | [17] > 100 µM
